# Source: article PMC3670040, “Structure of Lipid Kinase p110β/p85β Elucidates an Unusual SH2-Domain-Mediated Inhibitory Mechanism” (Molecular Cell, 2011)
# Square brackets hold non-standard residues; d marks the D form. Ends that are not written are not given here. pY = N[C@@H](Cc1ccc(OP(=O)(O)O)cc1)C(=O)O
# System: human p110β
# Test: Transcreener ADP formation, human p110β with icSH2 of human p85α, p85β, p55γ
# Assay type: biochemical
# Details: icSH2 from p85α, p85β or p55γ; 10 μM pY2; Figure 4A
# Description: Figure 4 cSH2 Is Important for p110β Inhibition In Vitro and in Cells (A) Kinase activity of human p110β and icSH2 wild-type constructs from three human regulatory subunits (p85α, p85β, and p55γ) in the absence and presence of 10 μM PDGFR pY2 (y axis as in Figure 1B). EC50s for wild-type and icSH2 tyrosine mutants, in the absence and presence of 10 μM PDGF pY2, are shown. (B) Western blots of HEK cells transiently expressing wild-type and mutant human p110β/p85α. The membrane was probed with antibodies against PKB, pPKB (pSer473), myc (p110β), FLAG (p85α), and actin. Bar graphs show mean ± SEM (n = 3) of PKB phosphorylation level normalized to wild-type p110β/p85α (WT). The position of the three mutations is mapped on the p110β/p85β structure. […]
# The lipid kinase activity was determined using the Transcreener ADP2 FP Assay (BellBrook Labs, Madison, WI) according to manufacturer‟s specifications. This non-radioactive assay measures activity by quantitating the amount of ADP formed. The ADP formed by PI3K competes with fluorescent ADP tracer for binding to an anti-ADP antibody, thereby decreasing fluorescence polarization. […]
substance,measurement,value
"ESDGG[pY]MDMSKDESID[pY]VPMLDMKGDIKYADIE [pY2, bis-phosphopeptide (PDGFR 735–767, with pY740 and pY751)]",effect of pY2 on activity of human p110β bound to icSH2,significantly stimulated the activity
